Results on one molecule are retold here after patent US8530183B2, “Zinc sensors for cellular imaging” (The Board of Regents of the University of Texas System, priority 2010, dated 2013).

One assay deals with INS-1 cells. In words: Response of membrane-anchored ZIMIR to extracellular Zn2+ and decay upon Zn2+ washout. Type of assay: cell-based, rat. As to the method: FIGS. 5A-B. Membrane anchored ZIMIR reports changes of [Zn^2+]e. (FIG. 5A) Example fluorescence images (Excitation 488±7.5 nm, emission 530±20 nm) of INS-1 cells labeled with ZIMIR at different [Zn^2+]e. (FIG. 5B) Quantification of the average ZIMIR fluorescence intensity along the plasma membrane (IZIMIR(PM)).
(FIG. 7A) Time courses of IZIMIR(PM) decay after washing INS-1 cells (initially bathed in FIBS containing 1 μM Zn^2+) with HBS containing EDTA (10 μM) and DPAS (0-8 μM). (FIG. 7B) ZIMIR imaging of insulin/Zn^2+ release of MIN6 cells bathed in SAB containing EDTA (10 μM) and DPAS (4 μM). Time courses of IZIMIR(PM) fluctuation of four separate regions of interest (ROI 1-4) and example ZIMIR images at different time points were shown (a-e; arrow heads highlighting local ZIMIR increases in separate ROIs at different time).
To characterize the response of membrane anchored ZIMIR to changes of extracellular Zn^2+ concentration ([Zn^2+]), the inventors varied [Zn^2+]e from low nanomolar to micromolar, using Zn^2-1 buffers containing nitrilotriacetic acid (for [Zn^2+]e<100 nM) (Hirano et al., 2000) or histidine (for [Zn^2+]e. 100 nM) (Hauser and Tsien, 2007). After recording fluorescence images at different [Zn^2+]e levels, the inventors washed cells with a nominally Zn^2+ free SAB containing 0.2 mM DPAS and followed the decay of IZIMIR(PM).
Upon membrane depolarization, ZIMIR signal increased immediately and reached a plateau before it gradually declined (FIGS. 6E-F). Unexpectedly, however, in some occasions, ZIMIR signal remained elevated even after the inventors lowered KCl concentration to the resting level (5 mM) (FIG. 9). […] In INS-1 beta cells labeled with ZIMIR, after recording ZIMIR fluorescence in solutions containing ˜1 μM of Zn2+, the inventors perifused cells with a nominally Zn^2+-free solution containing only EDTA (10 μM), or with both EDTA (10 μM) and different concentrations of DPAS.

The test system of another assay is pancreatic islets. In words: Confocal imaging of dye uptake and insulin/Zn2+ release in pancreatic islets. Type of assay: cell-based, mouse. As to the method:
FIGS. 8A-C. Imaging insulin/Zn^2+ release in islets by confocal laser scanning microscopy. (FIGS. 8A-B) Confocal images of mouse islets labeled with ZIMIR (FIG. 8A) or calcein/AM (FIG. 8B). (FIG. 8C) Confocal ZIMIR imaging of insulin/Zn^2+ release in a mouse islet bathed in SAB. Images from two example layers 15 μm apart before and 10 sec post KCl (40 mM) stimulation were shown.
FIG. 11. ZIMIR rapidly labels cells of intact human islets. Representative CLSM images of a ZIMIR labeled human islet at three focal planes 20 μm apart.
Islets labeling and ZIMIR imaging by confocal laser scanning microscopy. Experiments with rodent animals were carried out according to protocols approved by the Institutional Animal Care and Use Committee of University of Texas Southwestern Medical Center. Rodent islets were isolated from Sprague-Dawley rats or C57BL/6 mice after digesting exocrine tissues of pancreas using collagenase as described below. To image insulin release in islets, the inventors labeled islets with ZIMIR (final concentration 2 μM with 0.025% Pluronic) in SAB buffer for […]. Labeled islets were then transferred to an imaging dish that had been coated with 0.5% PuraMatrix peptide hydrogel (BD Biosciences, Cat # 354250). Islets adhered to the PuraMatrix hydrogel within 5 min. They then imaged ZIMIR fluorescence by confocal laser scanning microscopy using a LSM510 imaging system (Carl Zeiss) and a 40× oil immersion objective (Dakin and Li, 2007).
Confocal imaging of ZIMIR uptake and insulin/Zn^2+ release in pancreatic islets. In addition to cultured cells, ZIMIR also rapidly and noninvasively labels cells in preparations such as dissected pancreatic islets. After loading islets with ZIMIR (2 μM) for 25 min, the inventors applied CLSM to track the distribution of ZIMIR in three dimensions (3D). […] The result confirmed that ZIMIR readily diffused through the interstitial space to reach interior cells, whereas calcein/AM was trapped by cells in the outer layer, unable to penetrate any deeper. After labeling, the inventors depolarized cells with high concentration of KCl.

Regarding `CCCCCCCCCCCCN(CC(=O)O)Cc1c2oc3c(CN(CCCCCCCCCCCC)CC(=O)O)c(O)ccc3c(-c3cc(NCCN(CCc4ccccn4)Cc4ccccn4)ccc3C(=O)O)c-2ccc1=O` [ZIMIR], the “decaying half lifetime of membrane ZIMIR signal upon Zn^2+ washout” value with INS-1 cells (INS-1 cells, EDTA 10 μM only, absence of DPAS) worked out at 2.723 min. Also, the “ZIMIR fluorescence along the plasma membrane (IZIMIR(PM)) versus [Zn^2+]e” value in the assay with INS-1 cells ([Zn^2+]e varied from nanomolar to micromolar) was “stepwise increase with incremental level of [Zn^2+]e”. The “distribution of dye in islets (3D, CLSM)” value in the assay with pancreatic islets (ZIMIR 2 μM for 25 min, mouse and human islets) is reported as “taken up by cells throughout the islets, from the mantle to the core”. In addition, the “ZIMIR fluorescence change in islets upon KCl depolarization” value in the assay with pancreatic islets (mouse islet, high concentration of KCl (40 mM)) was “robust and synchronized enhancement of ZIMIR fluorescence”.
